How the values were obtained:
[1] = system: subjects with advanced hematologic malignancies undergoing myeloablative allogeneic hematopoietic cell transplantation; experiment: Chronic GVHD, per NIH consensus criteria; assay type: in vivo, human; details: Example 3, serum tacrolimus trough level higher vs lower than 4 ng/ml
Procedure: Chronic GVHD was diagnosed, staged, and graded per the International NIH Chronic GVHD Diagnosis and Staging Consensus Working Group criteria.
Chronic GVHD: As chronic GVHD (cGVHD) is associated with significant morbidity and with decreased survival, reducing the severity or incidence of cGVHD has the potential to greatly benefit graft recipients. Chronic GVHD was diagnosed per 2014 International NIH Chronic GVHD Diagnosis and Staging Consensus Working Group criteria.
Analysis was conducted using a cutoff of 365 days (i.e., cGVHD events that occur after Day ^+365 were not included). […] Additionally, several subjects in the study group have undergone greater than 2.5 years of follow-up with no cGVHD symptoms reported.

[2] = system: subjects with advanced hematologic malignancies undergoing myeloablative allogeneic hematopoietic cell transplantation; details: in vivo
From the text: Acute GVHD was staged and graded per MAGIC Standardization criteria.
Acute GVHD was staged and graded per Mount Sinai Acute GvHD International Consortium (MAGIC) Standardization criteria.

[3] = system: subjects with advanced hematologic malignancies undergoing myeloablative allogeneic hematopoietic cell transplantation; experiment: GVHD and relapse-free survival (GRFS); assay type: in vivo, human; details: Example 3, tacrolimus-only relative to sirolimus-only patients
From the text: GVHD and relapse-free survival is a composite readout that can refer to survival without relapse or Grade ≥3 acute or extensive chronic GVHD. At the time of reporting, the percent of GVHD-free and relapse-free survival to one-year post-transplant was 74% for the study group, compared to 34% for the SOC cohort, as shown in FIG. 4F. The difference was statistically significant (p=0.0001 by log-rank test).

[4] = system: subjects with advanced hematologic malignancies undergoing myeloablative allogeneic hematopoietic cell transplantation; experiment: Overall survival; assay type: in vivo, human; details: Example 3, tacrolimus-only relative to sirolimus-only patients
From the text: Overall survival: OS was defined as the time from the date of transplant to the date of death from any cause or, for surviving patients, to the date of last follow-up. […] The difference was statistically significant (p=0.0242 by log-rank test).

[5] = system: subjects with advanced hematologic malignancies undergoing myeloablative allogeneic hematopoietic cell transplantation; experiment: Disease relapse / relapse-free survival / disease status after therapy; assay type: in vivo, human; details: Example 3, tacrolimus-only relative to sirolimus-only patients
From the text: Incidence of disease relapse: For acute leukemias, relapse was defined as any of the following (MRD^+ alone was insufficient): (i) ≥5% blasts in the bone marrow or peripheral blood; or (ii) Reappearance of pre-transplant cytogenetic abnormality; or (iii) new evidence or redevelopment of extramedullary disease. For MDS, relapse was defined as any of the following: (i) satisfying criteria for evolution into acute leukemia; (ii) reappearance of pre-transplant morphologic abnormalities, detected in bone marrow specimens; or, (iii) reappearance of pre-transplant cytogenetic abnormality in at least one metaphase on each of two separate consecutive examinations at least one month apart, regardless of the number of metaphases analyzed.
Subjects in the study were first evaluated for relapse on day ^+90 post-transplant.

[6] = system: Patients with hematologic malignancies; experiment: Relapse, non-relapse mortality, relapse-free survival, GRFS and overall survival after transplant; assay type: in vivo, human; details: with Orca-T; relapse-free survival through 1 year; FIG. 14
From the text: FIGS. 1A-B illustrate the schematics of the transplant according to the methods described herein (identified as High-Precision Orca-T or Orca-T) and the differences compared to a standard of care (SOC) cohort (identified as Conventional Transplant or SOC).

With `C=CC[C@@H]1/C=C(\C)C[C@H](C)C[C@H](OC)[C@H]2O[C@@](O)(C(=O)C(=O)N3CCCC[C@H]3C(=O)O[C@H](/C(C)=C/[C@@H]3CC[C@@H](O)[C@H](OC)C3)[C@H](C)[C@@H](O)CC1=O)[C@H](C)C[C@@H]2OC` [tacrolimus] the “chronic GVHD rates” value [1] was “improvements”, the GVHD rates [2] was “higher” and the GRFS rates [3] was “improved”. For the same compound, the overall survival rates [4] was “improved”, the “survival (FIG. 7E)” value [4] was “improved” and the relapse rates [5] was “improved”.

With `S=P(N1CC1)(N1CC1)N1CC1` [thiotepa] the “effect of addition of thiotepa to busulfan-based conditioning regimens on relapse and non-relapse mortality” value [6] was “decreases relapse without increasing non-relapse mortality”.

Reference: patent US20250144140A1, “METHODS FOR ALLOGENEIC HEMATOPOIETIC STEM CELL TRANSPLANTATION” (Orca Biosystems, Inc., priority 2022, published 2025)
